Experimental data published in patent US8722849B2, “Polypeptides” (Novo Nordisk A/S, priority 2011, dated 2014).
Starred links: 1 amine or outer side, 2 acyl side, 3 side chain; linkers in the order of their positions; H or OH if unused. Positions of bridges follow the written chain, without caps; N, C: chain ends. Residues, ends and D or L forms follow the SMILES beside them. *: point of attachment. C20 diacid = O=C(O)CCCCCCCCCCCCCCCCCCC(=O)*; γGlu = O=C(O)[C@H](CCC(=O)[*:2])N[*:1]

Assays:
food intake = assay: Assay (I) efficacy testing on appetite (food intake), ad libitum fed rat model; format: in vivo, Sprague Dawley (SD) rats
Source text: In the following examples reference is made to the following Assays: • Assay (I)— Experimental protocol for efficacy testing on appetite using an ad libitum fed rat model • ASSAY (II)a—Functional assay—Human calcitonin and amylin receptor assay • ASSAY (II)b—Functional assay—Rat calcitonin and rat amylin receptor assays • ASSAY (III)—ThT fibrillation assays for the assessment of physical stability of protein formulations • ASSAY (IV)—Determination of solubility • ASSAY (V)—Determination of binding to the human amylin receptor • ASSAY (VI)—Determination of the binding to the rat amylin receptor • ASSAY (VII)—Determination of binding to the human calcitonin receptor • ASSAY (VIII)—Determination of binding to the rat calcitonin receptor • ASSAY (IX)—pK—Determination of T % in mini-pig • ASSAY (X)—pK—Determination of T % in rat ASSAY (I)—Experimental Protocol for Efficacy Testing on Appetite Using an Ad Libitum Fed Rat Model
Sprague Dawley (SD) rats from Taconic Europe, Denmark are used for the experiments. The rats have a body weight 200-250 g at the start of experiment. The rats arrive at least 10-14 days before start of experiment to allow acclimatization to experimental settings. During this period the animals are handled at least 2 times. After arrival rats are housed individually for one week in a reversed light/dark phase (meaning that lights are off during daytime and on during nighttime) […]. Since rats are normally active and eat their major part of their daily food intake during the dark period, rats are dosed in the morning right before lights are turned off. This set-up results in the lowest data variation and highest test sensitivity. The experiment is conducted in the rats' home cages and rats have free access to food and water throughout the acclimatization period and the experiment period. Each dose of derivative is tested in a group of 5-8 rats. A vehicle group of 6-8 rats is included in each set of testing. Rats are dosed once according to body weight with a 0.01-3 mg/kg solution administered intraperitoneally (ip), orally (po) or subcutaneously (sc). The time of dosing is recorded for each group. After dosing, the rats are returned to their home cages, where they then have access to food and water. The food consumption is recorded individually continuously by on-line registration or manually every hour for 7 hours, and then after 24 h and sometimes 48 h. At the end of the experimental session, the animals are euthanised.
The individual data are recorded in Microsoft excel sheets. Outliers are excluded after applying the Grubbs statistical evaluation test for outliers, and the result is presented graphically using the GraphPad Prism program.

[1] = Assay (III) ThT fibrillation assay for physical stability; format: physicochemical
How it was run: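 Freshly prepared formulations, pH-adjusted, with 1 μM ThT; four or eight replicates incubated at 37 °C under 960 rpm orbital shaking. Fluorescence (ex 444/em 485 nm) read every 20 min; […]. Peptide concentration measured by RP-HPLC before and after the run.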

Compound | Food intake reduction 0-24 h 3 nmol/kg (%) (food intake) | Food intake reduction 24-48 h 3 nmol/kg (%) (food intake) | ThT pH 4.0 lag time ([1]; Table 8) [h] | ThT pH 4.0 lag time ([1]; Table 9) [h] | ThT pH 4.0 lag time ([1]; ThT fibrillation assay) [h] | ThT pH 4.0 lag time (h) ([1]; ThT fibrillation assay) | Food intake reduction 0-24 h 30 nmol/kg (%) (food intake) | Food intake reduction 24-48 h 30 nmol/kg (%) (food intake)
CC[C@H](C)[C@H](NC(=O)[C@@H]1CCCN1C(=O)CNC(=O)[C@H](Cc1ccccc1)NC(=O)[C@H](CO)NC(=O)[C@H](CO)NC(=O)[C@H](CO)NC(=O)[C@H](CO)NC(=O)[C@H](CCCNC(=N)N)NC(=O)[C@H](Cc1c[nH]cn1)NC(=O)[C@H](CC(C)C)NC(=O)[C@H](Cc1ccccc1)NC(=O)[C@H](CCC(=O)O)NC(=O)[C@H](C)NC(=O)[C@H](CC(C)C)NC(=O)[C@H](CCCNC(=N)N)NC(=O)[C@H](CCC(N)=O)NC(=O)[C@@H](NC(=O)[C@H](C)NC(=O)[C@@H]1CSSC[C@H](NC(=O)[C@H](Cc2c[nH]cn2)NC(=O)CC[C@H](NC(=O)CCCCCCCCCCCCCCCCCCC(=O)O)C(=O)O)C(=O)N[C@@H](CC(N)=O)C(=O)N[C@@H]([C@@H](C)O)C(=O)N[C@@H](C)C(=O)N[C@@H]([C@@H](C)O)C(=O)N1)[C@@H](C)O)C(=O)N[C@@H](CC(C)C)C(=O)N1CCC[C@H]1C(=O)N1CCC[C@H]1C(=O)N[C@H](C(=O)N[C@@H](CC(=O)O)C(=O)N[C@H](C(=O)NCC(=O)N[C@@H](CO)C(=O)N[C@@H](CC(=O)O)C(=O)N[C@H](C(=O)N[C@@H](Cc1ccc(O)cc1)C(N)=O)[C@@H](C)O)C(C)C)[C@@H](C)O [Example 9, N-alpha-[(S)-4-Carboxy-4-(19-carboxynonadecanoylamino)butyryl]-[His1,Glu14,His17,Arg18,Ser21,Ser22,Asp31,Asp35]-pramlintide] ({C20 diacid-γGlu}-HCNTATCATQRLAEFLHRSSSSFGPILPPTDVGSDTY-NH2; disulfide 2-7 (inferred); C-terminus assumed) | 39 | 32 | >45 | >45 | >45 | >45 |  | 
CC[C@H](C)[C@H](NC(=O)[C@@H]1CCCN1C(=O)CNC(=O)[C@H](Cc1ccccc1)NC(=O)[C@H](CC(N)=O)NC(=O)[C@H](CC(N)=O)NC(=O)[C@H](CO)NC(=O)[C@H](CO)NC(=O)[C@H](Cc1c[nH]cn1)NC(=O)[C@H](Cc1c[nH]cn1)NC(=O)[C@H](CC(C)C)NC(=O)[C@H](Cc1ccccc1)NC(=O)[C@H](CCC(=O)O)NC(=O)[C@H](C)NC(=O)[C@H](CC(C)C)NC(=O)[C@H](CCCNC(=N)N)NC(=O)[C@H](CCC(N)=O)NC(=O)[C@@H](NC(=O)[C@H](C)NC(=O)[C@@H]1CSSC[C@H](NC(=O)[C@H](Cc2c[nH]cn2)NC(=O)[C@H](Cc2c[nH]cn2)NC(=O)[C@H](Cc2c[nH]cn2)NC(=O)CC[C@H](NC(=O)CCCCCCCCCCCCCCCCCCC(=O)O)C(=O)O)C(=O)N[C@@H](CC(N)=O)C(=O)N[C@@H]([C@@H](C)O)C(=O)N[C@@H](C)C(=O)N[C@@H]([C@@H](C)O)C(=O)N1)[C@@H](C)O)C(=O)N[C@@H](CC(C)C)C(=O)N1CCC[C@H]1C(=O)N1CCC[C@H]1C(=O)N[C@H](C(=O)N[C@@H](CC(N)=O)C(=O)N[C@H](C(=O)NCC(=O)N[C@@H](CO)C(=O)N[C@@H](CC(N)=O)C(=O)N[C@H](C(=O)N[C@@H](Cc1ccc(O)cc1)C(N)=O)[C@@H](C)O)C(C)C)[C@@H](C)O [Example 11, N-alpha-[(S)-4-Carboxy-4-(19-carboxynonadecanoylamino)butyryl]-His-His-[His1,Glu14,His17]-pramlintide] ({C20 diacid-γGlu}-HHHCNTATCATQRLAEFLHHSSNNFGPILPPTNVGSNTY-NH2; disulfide 4-9 (inferred)) |  |  |  |  |  | 7.4 | 87 | 92
CC[C@H](C)[C@H](NC(=O)[C@@H]1CCCN1C(=O)CNC(=O)[C@H](Cc1ccccc1)NC(=O)[C@H](CC(N)=O)NC(=O)[C@H](CC(N)=O)NC(=O)[C@H](CO)NC(=O)[C@H](CO)NC(=O)[C@H](Cc1c[nH]cn1)NC(=O)[C@H](CCCNC(=N)N)NC(=O)[C@H](CC(C)C)NC(=O)[C@H](Cc1ccccc1)NC(=O)[C@H](CCC(=O)O)NC(=O)[C@H](C)NC(=O)[C@H](CC(C)C)NC(=O)[C@H](CCCNC(=N)N)NC(=O)[C@H](CCC(N)=O)NC(=O)[C@@H](NC(=O)[C@H](C)NC(=O)[C@@H]1CSSC[C@H](NC(=O)[C@H](Cc2c[nH]cn2)NC(=O)[C@H](Cc2c[nH]cn2)NC(=O)[C@H](Cc2c[nH]cn2)NC(=O)CC[C@H](NC(=O)CCCCCCCCCCCCCCCCCCC(=O)O)C(=O)O)C(=O)N[C@@H](CC(N)=O)C(=O)N[C@@H]([C@@H](C)O)C(=O)N[C@@H](C)C(=O)N[C@@H]([C@@H](C)O)C(=O)N1)[C@@H](C)O)C(=O)N[C@@H](CC(C)C)C(=O)N1CCC[C@H]1C(=O)N1CCC[C@H]1C(=O)N[C@H](C(=O)N[C@@H](CC(N)=O)C(=O)N[C@H](C(=O)NCC(=O)N[C@@H](CO)C(=O)N[C@@H](CC(N)=O)C(=O)N[C@H](C(=O)N[C@@H](Cc1ccc(O)cc1)C(N)=O)[C@@H](C)O)C(C)C)[C@@H](C)O [Example 12, N-alpha-[(S)-4-Carboxy-4-(19-carboxynonadecanoylamino)butyryl]-His-His-[His1,Glu14,Arg17]-pramlintide] ({C20 diacid-γGlu}-HHHCNTATCATQRLAEFLRHSSNNFGPILPPTNVGSNTY-NH2; disulfide 4-9 (inferred); C-terminus assumed) |  |  |  |  | >45 | >45 | 70 | 45
CC[C@H](C)[C@H](NC(=O)[C@@H]1CCCN1C(=O)CNC(=O)[C@H](Cc1ccccc1)NC(=O)[C@H](CC(N)=O)NC(=O)[C@H](CC(N)=O)NC(=O)[C@H](CO)NC(=O)[C@H](CO)NC(=O)[C@H](CCCNC(=N)N)NC(=O)[C@@H](NC(=O)[C@H](CC(C)C)NC(=O)[C@H](Cc1ccccc1)NC(=O)[C@H](CCC(=O)O)NC(=O)[C@H](C)NC(=O)[C@H](CC(C)C)NC(=O)[C@H](CCCNC(=N)N)NC(=O)[C@H](CCC(N)=O)NC(=O)[C@@H](NC(=O)[C@H](C)NC(=O)[C@@H]1CSSC[C@H](NC(=O)[C@H](Cc2c[nH]cn2)NC(=O)CC[C@H](NC(=O)CCCCCCCCCCCCCCCCCCC(=O)O)C(=O)O)C(=O)N[C@@H](CC(N)=O)C(=O)N[C@@H]([C@@H](C)O)C(=O)N[C@@H](C)C(=O)N[C@@H]([C@@H](C)O)C(=O)N1)[C@@H](C)O)C(C)C)C(=O)N[C@@H](CC(C)C)C(=O)N1CCC[C@H]1C(=O)N1CCC[C@H]1C(=O)N[C@H](C(=O)N[C@@H](CC(N)=O)C(=O)N[C@H](C(=O)NCC(=O)N[C@@H](CO)C(=O)N[C@@H](CC(N)=O)C(=O)N[C@H](C(=O)N[C@@H](Cc1ccc(O)cc1)C(N)=O)[C@@H](C)O)C(C)C)[C@@H](C)O [Example 15, N-alpha-[(S)-4-Carboxy-4-(19-carboxynonadecanoylamino)butyryl]-[His1,Glu14,Arg18]-pramlintide] ({C20 diacid-γGlu}-HCNTATCATQRLAEFLVRSSNNFGPILPPTNVGSNTY-NH2; disulfide 2-7 (inferred); C-terminus assumed) | 56 | 59 |  |  |  | 4.7 |  | 
